The results in this text go back to patent US20260022142A1, “MACROCYCLIC IMMUNOMODULATORS” (Bristol-Myers Squibb Company, priority 2022, published 2026).

Bridge positions count the residues as written; N and C are the ends. Square brackets hold non-standard residues; d marks the D form. Peptide text beside a SMILES is read from it. * marks the point of attachment. ξ: configuration not given here. Bip = N[C@@H](Cc1ccc(-c2ccccc2)cc1)C(=O)O; Phe(3-Me) = Cc1cccc(C[C@H](N)C(=O)O)c1; ξBip = NC(Cc1ccc(-c2ccccc2)cc1)C(=O)O; 4Pal = N[C@@H](Cc1ccncc1)C(=O)O; Cha = N[C@@H](CC1CCCCC1)C(=O)O; Cit = NC(=O)NCCC[C@H](N)C(=O)O; Carboxymethyl = O=C(O)C*; Orn = NCCC[C@H](N)C(=O)O; Aun = NCCCCCCCCCCC(=O)O; Dab = NCC[C@H](N)C(=O)O; Dap = NC[C@H](N)C(=O)O; ξD = NC(CC(=O)O)C(=O)O; AEEA = NCCOCCOCC(=O)O

Broadly, the IC50 is the concentration that gives 50% inhibition.

The assay deals with T1, PD-1/PD-L1 interaction (PE-labeled human PD-L1-Ig binding to Jurkat cell line over-expressing human PD-1) (Homo sapiens, UniProt Q15116).
T1 construct: expressed in transfected cells; host or cells: Jurkat
T1 sequence (Q15116 25-288): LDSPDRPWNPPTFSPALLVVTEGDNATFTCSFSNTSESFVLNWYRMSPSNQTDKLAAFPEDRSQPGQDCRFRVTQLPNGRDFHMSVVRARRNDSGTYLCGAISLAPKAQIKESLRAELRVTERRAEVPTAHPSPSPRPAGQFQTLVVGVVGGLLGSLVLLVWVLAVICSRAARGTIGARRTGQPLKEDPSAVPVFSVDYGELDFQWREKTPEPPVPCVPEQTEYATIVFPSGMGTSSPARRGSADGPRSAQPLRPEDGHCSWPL
The assay can be described thus: Jurkat-PD-1 Cell Binding High-Content Screening Assay (CBA). The class given is cell-based. The settings on record: Jurkat cell line over-expressing human PD-1; PE-labeled PD-L1-Ig 20 nM final; read-out: Jurkat hPD1-PDL1 IC50. A digest of the protocol:
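Read-out is high-content imaging of cell-bound phycoerythrin-tagged PD-L1-Ig on fixed, Hoechst-counterstained Jurkat cells that over-express human PD-1. Compound exposure lasts 2 h at 37° C before the labeled ligand (20 nM final) is added for a further hour.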
Consider `Cc1cccc(C[C@@H]2NC(=O)[C@H](CC(=O)O)NC(=O)[C@H](Cc3ccncc3)NC(=O)[C@H](Cc3ccc(OCC(=O)O)cc3)NC(=O)CSC[C@@H](C(=O)NCCOCCOCC(=O)N[C@@H](CN)C(=O)NCCCCCCCCCCC(=O)O)NC(=O)[C@H]([C@@H](C)O)NC(=O)[C@H](C(C)C)NC(=O)[C@H](CC3CCCCC3)NC(=O)[C@H](CCN)NC(=O)[C@@H](CC(C)C)NC(=O)[C@H](CCCN)NC(=O)[C@H](C(C)C)NC(=O)[C@H](Cc3ccc(-c4ccccc4)cc3)NC(=O)[C@H](C(C)C)NC2=O)c1` [Compound 1169] ({CH2CO}-Y(Carboxymethyl)[4Pal]D[Phe(3-Me)]V[Bip]V[Orn][dL][Dab][Cha]VTC[AEEA][Dap][Aun]-OH; thioether N-14), for which the 50% inhibitory concentration (IC50) amounted to 28.7 nM.
Regarding `Cc1cccc(C[C@@H]2NC(=O)[C@H](CC(=O)O)NC(=O)[C@H](Cc3ccncc3)NC(=O)[C@H](Cc3ccc(OCC(=O)O)cc3)NC(=O)CSC[C@@H](C(=O)NCCOCCOCC(=O)N[C@@H](CCN)C(=O)NCCCCCCCCCCC(=O)O)NC(=O)[C@H]([C@@H](C)O)NC(=O)[C@H](C(C)C)NC(=O)[C@H](CC3CCCCC3)NC(=O)[C@H](CCN)NC(=O)[C@@H](CC(C)C)NC(=O)[C@H](CCCN)NC(=O)[C@H](C(C)C)NC(=O)[C@H](Cc3ccc(-c4ccccc4)cc3)NC(=O)[C@H](C(C)C)NC2=O)c1` [Compound 1170] ({CH2CO}-Y(Carboxymethyl)[4Pal]D[Phe(3-Me)]V[Bip]V[Orn][dL][Dab][Cha]VTC[AEEA][Dab][Aun]-OH; thioether N-14), the IC50 stood at 37.9 nM.
As for `Cc1cccc(C[C@@H]2NC(=O)[C@H](CC(=O)O)NC(=O)[C@H](Cc3ccncc3)NC(=O)[C@H](Cc3ccc(OCC(=O)O)cc3)NC(=O)CSC[C@@H](C(=O)NCCOCCOCC(=O)N[C@@H](CCCN)C(=O)NCCCCCCCCCCC(=O)O)NC(=O)[C@H]([C@@H](C)O)NC(=O)[C@H](C(C)C)NC(=O)[C@H](CC3CCCCC3)NC(=O)[C@H](CCN)NC(=O)[C@@H](CC(C)C)NC(=O)[C@H](CCCN)NC(=O)[C@H](C(C)C)NC(=O)[C@H](Cc3ccc(-c4ccccc4)cc3)NC(=O)[C@H](C(C)C)NC2=O)c1` [Compound 1171] ({CH2CO}-Y(Carboxymethyl)[4Pal]D[Phe(3-Me)]V[Bip]V[Orn][dL][Dab][Cha]VTC[AEEA][Orn][Aun]-OH; thioether N-14), the figure is 28 nM.
Then `Cc1cccc(C[C@@H]2NC(=O)[C@H](CC(=O)O)NC(=O)[C@H](Cc3ccncc3)NC(=O)[C@H](Cc3ccc(OCC(=O)O)cc3)NC(=O)CSC[C@@H](C(=O)NCCOCCOCC(=O)N[C@@H](CCCCN)C(=O)NCCCCCCCCCCC(=O)O)NC(=O)[C@H]([C@@H](C)O)NC(=O)[C@H](C(C)C)NC(=O)[C@H](CC3CCCCC3)NC(=O)[C@H](CCN)NC(=O)[C@@H](CC(C)C)NC(=O)[C@H](CCCN)NC(=O)[C@H](C(C)C)NC(=O)[C@H](Cc3ccc(-c4ccccc4)cc3)NC(=O)[C@H](C(C)C)NC2=O)c1` [Compound 1172] ({CH2CO}-Y(Carboxymethyl)[4Pal]D[Phe(3-Me)]V[Bip]V[Orn][dL][Dab][Cha]VTC[AEEA]K[Aun]-OH; thioether N-14), with 25 nM.
For `Cc1cccc(C[C@@H]2NC(=O)C(CC(=O)O)NC(=O)[C@H](Cc3ccc(OCC(=O)O)cc3)NC(=O)[C@H](CN)NC(=O)CSC[C@@H](C(=O)N[C@@H](CCCNC(=N)N)C(=O)NCCCCCCCCCCC(=O)O)NC(=O)[C@H]([C@@H](C)O)NC(=O)[C@H](C(C)C)NC(=O)[C@H](CC3CCCCC3)NC(=O)[C@H](CCN)NC(=O)[C@@H](CC(C)C)NC(=O)[C@H](CCCN)NC(=O)[C@H](CCCNC(N)=O)NC(=O)C(Cc3ccc(-c4ccccc4)cc3)NC(=O)[C@H](C(C)C)NC2=O)c1` (stereo partly drawn) [Compound 1174] ({CH2CO}-[Dap]Y(Carboxymethyl)[ξD][Phe(3-Me)]V[ξBip][Cit][Orn][dL][Dab][Cha]VTCR[Aun]-OH; thioether N-14), the concentration for half-maximal inhibition (IC50) is 16.6 nM.
As for `Cc1cccc(C[C@@H]2NC(=O)C(CC(=O)O)NC(=O)[C@H](Cc3ccc(OCC(=O)O)cc3)NC(=O)[C@H](CN)NC(=O)CSC[C@@H](C(=O)N[C@@H](Cc3cnc[nH]3)C(=O)NCCCCCCCCCCC(=O)O)NC(=O)[C@H]([C@@H](C)O)NC(=O)[C@H](C(C)C)NC(=O)[C@H](CC3CCCCC3)NC(=O)[C@H](CCN)NC(=O)[C@@H](CC(C)C)NC(=O)[C@H](CCCN)NC(=O)[C@H](CCCNC(N)=O)NC(=O)C(Cc3ccc(-c4ccccc4)cc3)NC(=O)[C@H](C(C)C)NC2=O)c1` (stereo partly drawn) [Compound 1175] ({CH2CO}-[Dap]Y(Carboxymethyl)[ξD][Phe(3-Me)]V[ξBip][Cit][Orn][dL][Dab][Cha]VTCH[Aun]-OH; thioether N-14), the figure is 19.9 nM.
As for `Cc1cccc(C[C@@H]2NC(=O)C(CC(=O)O)NC(=O)[C@H](Cc3ccc(OCC(=O)O)cc3)NC(=O)[C@H](CN)NC(=O)CSC[C@@H](C(=O)NCCOCCOCC(=O)N[C@@H](CN)C(=O)NCCCCCCCCCCC(=O)O)NC(=O)[C@H]([C@@H](C)O)NC(=O)[C@H](C(C)C)NC(=O)[C@H](CC3CCCCC3)NC(=O)[C@H](CCN)NC(=O)[C@@H](CC(C)C)NC(=O)[C@H](CCCN)NC(=O)[C@H](CCCNC(N)=O)NC(=O)C(Cc3ccc(-c4ccccc4)cc3)NC(=O)[C@H](C(C)C)NC2=O)c1` (stereo partly drawn) [Compound 1176] ({CH2CO}-[Dap]Y(Carboxymethyl)[ξD][Phe(3-Me)]V[ξBip][Cit][Orn][dL][Dab][Cha]VTC[AEEA][Dap][Aun]-OH; thioether N-14), the half-inhibitory concentration (IC50) came out at 7.2 nM.
For the compound `Cc1cccc(C[C@@H]2NC(=O)C(CC(=O)O)NC(=O)[C@H](Cc3ccc(OCC(=O)O)cc3)NC(=O)[C@H](CN)NC(=O)CSC[C@@H](C(=O)NCCOCCOCC(=O)N[C@@H](CCN)C(=O)NCCCCCCCCCCC(=O)O)NC(=O)[C@H]([C@@H](C)O)NC(=O)[C@H](C(C)C)NC(=O)[C@H](CC3CCCCC3)NC(=O)[C@H](CCN)NC(=O)[C@@H](CC(C)C)NC(=O)[C@H](CCCN)NC(=O)[C@H](CCCNC(N)=O)NC(=O)C(Cc3ccc(-c4ccccc4)cc3)NC(=O)[C@H](C(C)C)NC2=O)c1` (stereo partly drawn) [Compound 1177] ({CH2CO}-[Dap]Y(Carboxymethyl)[ξD][Phe(3-Me)]V[ξBip][Cit][Orn][dL][Dab][Cha]VTC[AEEA][Dab][Aun]-OH; thioether N-14), the IC50 came to 8.3 nM.
Then `Cc1cccc(C[C@@H]2NC(=O)C(CC(=O)O)NC(=O)[C@H](Cc3ccc(OCC(=O)O)cc3)NC(=O)[C@H](CN)NC(=O)CSC[C@@H](C(=O)NCCOCCOCC(=O)N[C@@H](CCCN)C(=O)NCCCCCCCCCCC(=O)O)NC(=O)[C@H]([C@@H](C)O)NC(=O)[C@H](C(C)C)NC(=O)[C@H](CC3CCCCC3)NC(=O)[C@H](CCN)NC(=O)[C@@H](CC(C)C)NC(=O)[C@H](CCCN)NC(=O)[C@H](CCCNC(N)=O)NC(=O)C(Cc3ccc(-c4ccccc4)cc3)NC(=O)[C@H](C(C)C)NC2=O)c1` (stereo partly drawn) [Compound 1178] ({CH2CO}-[Dap]Y(Carboxymethyl)[ξD][Phe(3-Me)]V[ξBip][Cit][Orn][dL][Dab][Cha]VTC[AEEA][Orn][Aun]-OH; thioether N-14), with 9.7 nM; and `Cc1cccc(C[C@@H]2NC(=O)C(CC(=O)O)NC(=O)[C@H](Cc3ccc(OCC(=O)O)cc3)NC(=O)[C@H](CN)NC(=O)CSC[C@@H](C(=O)NCCOCCOCC(=O)N[C@@H](CCCCN)C(=O)NCCCCCCCCCCC(=O)O)NC(=O)[C@H]([C@@H](C)O)NC(=O)[C@H](C(C)C)NC(=O)[C@H](CC3CCCCC3)NC(=O)[C@H](CCN)NC(=O)[C@@H](CC(C)C)NC(=O)[C@H](CCCN)NC(=O)[C@H](CCCNC(N)=O)NC(=O)C(Cc3ccc(-c4ccccc4)cc3)NC(=O)[C@H](C(C)C)NC2=O)c1` (stereo partly drawn) [Compound 1179] ({CH2CO}-[Dap]Y(Carboxymethyl)[ξD][Phe(3-Me)]V[ξBip][Cit][Orn][dL][Dab][Cha]VTC[AEEA]K[Aun]-OH; thioether N-14), with 10.3 nM.
Then `Cc1cccc(C[C@@H]2NC(=O)C(CC(=O)O)NC(=O)[C@H](Cc3ccc(OCC(=O)O)cc3)NC(=O)[C@H](CN)NC(=O)CSC[C@@H](C(=O)NCCOCCOCC(=O)N[C@@H](CCCNC(=N)N)C(=O)NCCCCCCCCCCC(=O)O)NC(=O)[C@H]([C@@H](C)O)NC(=O)[C@H](C(C)C)NC(=O)[C@H](CC3CCCCC3)NC(=O)[C@H](CCN)NC(=O)[C@@H](CC(C)C)NC(=O)[C@H](CCCN)NC(=O)[C@H](CCCNC(N)=O)NC(=O)C(Cc3ccc(-c4ccccc4)cc3)NC(=O)[C@H](C(C)C)NC2=O)c1` (stereo partly drawn) [Compound 1180] ({CH2CO}-[Dap]Y(Carboxymethyl)[ξD][Phe(3-Me)]V[ξBip][Cit][Orn][dL][Dab][Cha]VTC[AEEA]R[Aun]-OH; thioether N-14), with 18.4 nM; and `Cc1cccc(C[C@@H]2NC(=O)C(CC(=O)O)NC(=O)[C@H](Cc3ccc(OCC(=O)O)cc3)NC(=O)[C@H](CN)NC(=O)CSC[C@@H](C(=O)N[C@@H](CN)C(=O)NCCCCCCCCCCC(=O)O)NC(=O)[C@H]([C@@H](C)O)NC(=O)[C@H](C(C)C)NC(=O)[C@H](CC3CCCCC3)NC(=O)[C@H](CCN)NC(=O)[C@@H](CC(C)C)NC(=O)[C@H](CCCN)NC(=O)[C@H](CCCNC(N)=O)NC(=O)C(Cc3ccc(-c4ccccc4)cc3)NC(=O)[C@H](C(C)C)NC2=O)c1` (stereo partly drawn) [Compound 1181] ({CH2CO}-[Dap]Y(Carboxymethyl)[ξD][Phe(3-Me)]V[ξBip][Cit][Orn][dL][Dab][Cha]VTC[Dap][Aun]-OH; thioether N-14), with 11.7 nM; and `CC[C@H](C)[C@@H]1NC(=O)[C@H](Cc2ccc(-c3ccccc3)cc2)NC(=O)[C@H](C(C)C)NC(=O)[C@H](Cc2cccc(C)c2)NC(=O)[C@H](CC(=O)O)NC(=O)[C@H](Cc2ccc(C(=O)O)cc2)NC(=O)[C@H](Cc2ccncc2)NC(=O)CSC[C@@H](C(=O)NCCOCCOCC(=O)NCCCCCCCCCCC(=O)O)NC(=O)[C@H]([C@@H](C)O)NC(=O)[C@H](C(C)C)NC(=O)[C@H](CC2CCCCC2)NC(=O)[C@H](CCN)NC(=O)[C@@H](CC(C)C)NC(=O)[C@H](CCCN)NC1=O` [Compound 1182], with 43.7 nM.
